We go through 27 molecules from ChEMBL document CHEMBL1131868, “Alpha-trifluoromethylated acyloins induce apoptosis in human oral tumor cell lines” (1999).

Where a name gives a salt, the structure may show the parent alone.

Format in all cases: functional
Test [1] can be described thus: In vitro cytotoxic activity against human gingival fibroblasts (HGF).
Test [2] in a line: In vitro cytotoxic activity against human squamous cell carcinoma (HSC-2) cells.
Test [3] in a line: In vitro cytotoxic activity against human salivary gland tumor (HSG) cells.

`O=C(Cc1nc2ccccc2[nH]1)C(F)(F)F`: the 50% cytotoxic concentration (CC50) was found to be 200 µM in test [1], 53 µM in test [2] and 340 µM in test [3].
For `O=C(Oc1ccccc1)N1C=C(C(=O)C(F)(F)F)CC1`, the results for the CC50 in test [1], in test [2] and in test [3] were 620 µM, 230 µM and 270 µM, respectively.
`O=C(c1cccs1)C(F)(F)F`: the CC50 in test [1] is > 2800 µM; in test [2], 1900 µM; in test [3], 2700 µM.
For `O=C(Cc1ccccn1)C(F)(F)F`, the half-maximal cytotoxic concentration (CC50) in test [1] turned out to be 2100 µM; in test [2] it was 620 µM; in test [3], 1600 µM.
For the molecule `O=C(Cc1nc2ccccc2s1)C(F)(F)F`, the cytotoxic concentration (CC50) in test [1] is 430 µM; in test [2], 150 µM; in test [3], 390 µM.
On to `O=C(c1ccccc1)C(F)(F)F`, for which the figures for the CC50 in test [1], in test [2] and in test [3] were > 2900 µM, > 2900 µM and 2700 µM, respectively.
Regarding `O=C(CC(=O)C(F)(F)F)c1ccccc1`, the figures for the CC50 in test [1], in test [2] and in test [3] were 1400 µM, 150 µM and 420 µM, respectively.
`CC(=O)C(O)c1ccccc1` (centres undefined): the cytotoxic concentration (CC50) came out at 3200 µM in test [1], 1700 µM in test [2] and 2900 µM in test [3].
For the molecule `O=C(c1c[nH]c2ccccc12)C(F)(F)F`, the CC50 in test [1] worked out at 2000 µM; in test [2] it was 94 µM; in test [3], 1300 µM.
Regarding `O=C(Cc1ccccc1)C(O)C(F)(F)F` (centres undefined), the CC50 came out at 310 µM in test [1], 22 µM in test [2] and 110 µM in test [3].
Turning to `CC(=O)CC(=O)C(F)(F)F`, the CC50 in test [1] was > 3200 µM; in test [2], 2500 µM; in test [3] it was 3200 µM.
In the case of `O=C(c1ccccc1)C(O)C(F)(F)F` (centres undefined), the CC50 in test [1] was 1300 µM; in test [2], 36 µM; in test [3] it was 240 µM.
As to `O=C(c1nc2ccccc2o1)C(F)(F)F`, the 50% cytotoxic concentration (CC50) was found to be 2200 µM in test [1], 580 µM in test [2] and 1700 µM in test [3].
For `OC(c1ccccc1)C(F)(F)F` (centres undefined), the results for the 50% cytotoxic concentration (CC50) in test [1], in test [2] and in test [3] were 2200 µM, 1100 µM and 2100 µM, respectively.
Turning to `CCCCCCC(=O)C(O)C(F)(F)F` (centres undefined), the 50% cytotoxic concentration (CC50) amounted to 790 µM in test [1], 90 µM in test [2] and 220 µM in test [3].
Take `OC(Cc1ccccc1)C(F)(F)F` (centres undefined): the half-maximal cytotoxic concentration (CC50) in test [1] stood at 1700 µM; in test [2], 460 µM; in test [3], 1300 µM.
In the case of `C=CCOC(=O)N1C=C(C(=O)C(F)(F)F)CC1`, the results for the CC50 in test [1], in test [2] and in test [3] were 140 µM, 110 µM and 240 µM, respectively.
Regarding `O=C(CC(O)C(F)(F)F)c1ccccc1` (centres undefined), the CC50 in test [1] is 1700 µM; in test [2], 240 µM; in test [3], 1500 µM.
Regarding `O=C(Cc1nc2ccccc2o1)C(F)(F)F`, the CC50 in test [1] came to 630 µM; in test [2] it was 43 µM; in test [3], 79 µM.
For the molecule `O=C(Cc1ccccc1)C(F)(F)F`, the CC50 was 2200 µM in test [1], 1400 µM in test [2] and 1600 µM in test [3].
For `Cc1nc(CC(=O)C(F)(F)F)oc1C`, the CC50 in test [1] was 77 µM; in test [2], < 68 µM; in test [3], 150 µM.
Regarding `O=C(C(=O)C(F)(F)F)c1ccccc1`, the CC50 in test [1] is 510 µM; in test [2], 79 µM; in test [3] it was 390 µM.
Turning to `O=C(NCCCC(=O)C(O)C(F)(F)F)c1ccccc1` (centres undefined), the figures for the CC50 in test [1], in test [2] and in test [3] were 420 µM, 31 µM and 400 µM, respectively.
On to `O=C(c1ccc[nH]1)C(F)(F)F`, for which the CC50 in test [1] is 2100 µM; in test [2] it was 870 µM; in test [3], 1800 µM.
`COc1cccc2c1C(=O)c1c(O)c3c(c(O)c1C2=O)C[C@@](O)(C(=O)CO)C[C@@H]3O[C@H]1C[C@H](N)[C@H](O)[C@H](C)O1` [DOXORUBICIN HYDROCHLORIDE] displayed a CC50 in test [2] of 4.1 µM.
Turning to `O=C(OC1c2ccccc2-c2ccccc21)N1C=C(C(=O)C(F)(F)F)CC1`, the figures for the CC50 in test [1], in test [2] and in test [3] were 230 µM, 140 µM and 180 µM, respectively.
Consider `COC(=O)CC(=O)C(F)(F)F`, for which the results for the half-maximal cytotoxic concentration (CC50) in test [1], in test [2] and in test [3] were > 2900 µM, 1300 µM and 1800 µM, respectively.
